Measurements taken from US5800838A, “Composition that inhibits or destroys at least one unicellular living organism containing fluorine F- and Lithium li+” (priority 1987, dated 1998).
≈ marks a conversion by molar mass, not a printed value.

Tests used:
Type in all cases: cell-based
[1] = system: spermatozoa; test: SANDERS-CRAMER total spermicidal test according to IPPF standards
[2] = system: Gardnerella vaginalis; test: Number of strains inhibited, bactericidal substance incorporated in culture medium (first trial); conditions: NaF or LiF 1 mg/l where added
Procedure: In the first trial, the sample of bactericidal substance was incorporated directly in the specific culture edium of the microorganism. A concentration series of the bactericidal substance was prepared in the geometric ratio of 2, from 400 μg/ml to 1.56 μg/ml. The cell concentration used in the seeding of the Petri dishes was […]. A 24-hour incubation was performed at 37° C. and then, for each wild-type strain tested, the concentration of primary principle destroying all the microorganisms (see method of Professor F. CATALAN et al., Institut A. FOURNIER, PARIS) was determined. The trail was performed on 32 wild-type strains of Gardnerella vaginalis originating from hospital sources and with benzalkonium chloride and then nonoxinol 9 as active principles, and with sodium fluoride NaF at a concentration of 1 mg/l and then lithium fluoride LiF at a concentration of 1 mg/l as activating principles.

[3] = system: Pseudomonas aeruginosa; test: MIC on 200 wild-type strains of Pseudomonas aeruginosa (Examples 19 and 20)
Procedure: With the same methodology as above, the MIC values of benzalkonium chloride alone, in the presence of the KATHON CG (registered trademark) preservative (1 mg/l), and then in the presence of KATHON CG (registered trademark) (1 mg/l) and lithium fluoride (1 mg/l), were determined. 200 wild-type strains of Pseudomonas aeruginosa were tested.
The same trial as in Example 19 was performed, but with nonoxinol 9 as the primary active principle: 200 wild-type strains of Pseudomonas aeruginosa were also tested.

[4] = system: Pseudomonas aeruginosa; test: MIC of antibiotics by microdilution in liquid medium on plates (Example 18); conditions: for MIC: Pseudomonas aeruginosa, read-out: MIC (average MIC value)
Procedure: The unicellular living organism chosen for the trials is Pseudomonas aeruginosa (wild-type strain originating from hospital sources).
The same methodology as for Examples 11 and 12 was follows. Bacteriostatic analyses were performed with a number of antibiotics belonging to benzylpenicillins, and aminopenicillins, and first and second generation cephalosporins, namely:
The determination of the MIC was carried out by the microdilution method in liquid medium on plates. Aqueous solutions of each antibiotic are prepared in MUELLER HINION broth, to obtain dilutions in a geometric ratio of 2. The solvent is sterile double-distilled water.
The preparation of the bacterial inoculum is made with a culture of Pseudomonas aeruginosa, with agitation on a water bath at 37° C. for 4 to 6 hours, giving 10^6 bacteria/ml.
Three trials were performed per antibiotic and per bacterial inoculum. The trials were performed first with the antibiotics alone (trials a).sctn., and then with the addition of a dose of 1 mg/l of an aqueous solution of lithium fluoride (trials b).sctn. to the dilution of each one in every cup of every plate.

[5] = system: Pseudomonas aeruginosa; test: Resistance of Pseudomonas aeruginosa to antiseptics in terms of water hardness and proteins;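 further: R means colony growth observed and S means no significant growth; key: R: resistant (a growth of colonies was observed); S: sensitive (no significant growth was observed)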
Procedure: The resistance of Pseudomonas aeruginosa to various reputedly bactericidal active principles or commercial antiseptics was studied in terms of the hardness of the water and the presence or absence of proteins. The same trial was carried out on the foaming paste according to the invention (see Example 15).

[6] = alone, strain lic R βLac^+ cephalosporinase
[7] = alone, strain lic S βLac^- (first column)
[8] = alone, strain lic S βLac^- (second column)

**Q.** With `[Li+]` [Li^+ ions] as the compound, how does the spermicidal effect ([1]; in words) read?
**A.** A spermicidal effect

**Q.** Which “number of strains inhibited out of the 32 tested” value ([2]; primary active principle 1.56 mg/l) does the source give for `CCCCCCCCCc1ccc(OCCOCCOCCOCCOCCOCCOCCOCCOCCO)cc1` [Nonoxinol 9] here?
**A.** 0

**Q.** What about the “number of strains inhibited out of the 32 tested” value ([2]; primary active principle 3.125 mg/l) of the same compound?
**A.** 0

**Q.** And the “number of strains inhibited out of the 32 tested” value ([2]; primary active principle 6.25 mg/l)?
**A.** 0

**Q.** And the “number of strains inhibited out of the 32 tested” value ([2]; primary active principle 12.5 mg/l)?
**A.** 0

**Q.** And the “number of strains inhibited out of the 32 tested” value ([2]; primary active principle 25 mg/l)?
**A.** 4

**Q.** And the “number of strains inhibited out of the 32 tested” value ([2]; primary active principle 50 mg/l)?
**A.** 6

**Q.** What about the “number of strains inhibited out of the 32 tested” value ([2]; primary active principle 100 mg/l) of the same compound?
**A.** 10

**Q.** What about the “number of strains inhibited out of the 32 tested” value ([2]; primary active principle 200 mg/l) of the same compound?
**A.** 25

**Q.** What about the “number of strains inhibited out of the 32 tested” value ([2]; primary active principle 400 mg/l) of the same compound?
**A.** 32

**Q.** What about the MIC ([3]; + KATHON CG (1 mg/l) + LiF (1 mg/l), strain Tic R βLac^+) of the same compound?
**A.** 64 mg/L

**Q.** And the MIC ([3]; + KATHON CG (1 mg/l) + LiF (1 mg/l), strain Tic R βLac^+ OXA)?
**A.** 64 mg/L

**Q.** What about the MIC ([3]; + KATHON CG (1 mg/l) + LiF (1 mg/l), strain Tic R βLac^+ PSE) of the same compound?
**A.** 64 mg/L

**Q.** What about the MIC ([3]; + KATHON CG (1 mg/l) + LiF (1 mg/l), strain Tic R βLac^+ TEM) of the same compound?
**A.** 64 mg/L

**Q.** What about the MIC ([3]; + KATHON CG (1 mg/l) + LiF (1 mg/l), strain Tic R βLac^+ cephalosporinase) of the same compound?
**A.** 128 mg/L

**Q.** What about the MIC ([3]; + KATHON CG (1 mg/l) + LiF (1 mg/l), strain Tic S βLac^-) of the same compound?
**A.** 32 mg/L

**Q.** What about the MIC ([3]; alone, strain Tic R βLac^+) of the same compound?
**A.** 128 mg/L (≈ 208 µM)

**Q.** And the MIC ([3]; alone, strain Tic R βLac^+ OXA)?
**A.** 128 mg/L (≈ 208 µM)

**Q.** What about the MIC ([3]; alone, strain Tic R βLac^+ PSE) of the same compound?
**A.** 64 mg/L (≈ 104 µM)

**Q.** And the MIC ([3]; alone, strain Tic R βLac^+ TEM)?
**A.** 128 mg/L (≈ 208 µM)

**Q.** And the MIC ([3]; alone, strain Tic R βLac^+ cephalosporinase)?
**A.** 256 mg/L (≈ 415 µM)

**Q.** What about the MIC ([3]; alone, strain Tic S βLac^-) of the same compound?
**A.** 64 mg/L (≈ 104 µM)

**Q.** For `CCN1CCN(C(=O)N[C@@H](C(=O)N[C@@H]2C(=O)N3[C@@H]2SC(C)(C)[C@@H]3C(=O)O)c2ccccc2)C(=O)C1=O` [PIPERACILLIN, piperacillin], which MIC ([4]; + LiF 1 mg/l, strain lic R βLac^+ OXA) is on record?
**A.** 64 mg/L

**Q.** What about the MIC ([4]; + LiF 1 mg/l, strain lic R βLac^+ PSE) of the same compound?
**A.** 64 mg/L

**Q.** And the MIC ([4]; + LiF 1 mg/l, strain lic R βLac^+ TEM)?
**A.** 64 mg/L

**Q.** And the MIC ([4]; + LiF 1 mg/l, strain lic R βLac^+ cephalosporinase)?
**A.** 128 mg/L

**Q.** And the MIC ([4]; + LiF 1 mg/l, strain lic S βLac^- (first column))?
**A.** 8 mg/L

**Q.** What about the MIC ([4]; + LiF 1 mg/l, strain lic S βLac^- (second column)) of the same compound?
**A.** 8 mg/L

**Q.** What about the MIC ([4]; alone, strain lic R βLac^+ OXA) of the same compound?
**A.** 64 mg/L

**Q.** And the MIC ([4]; alone, strain lic R βLac^+ PSE)?
**A.** 128 mg/L

**Q.** And the MIC ([4]; alone, strain lic R βLac^+ TEM)?
**A.** 64 mg/L

**Q.** What about the MIC [4, 6] of the same compound?
**A.** 128 mg/L

**Q.** And the MIC [4, 7]?
**A.** 8 mg/L

**Q.** What about the MIC [4, 8] of the same compound?
**A.** 16 mg/L

**Q.** With `O=S(=O)([O-])[O-].[Zn+2]` [Zinc sulphate] as the compound, how does the resistance ([5]; 0.2 ml inoculum, contact time 10 mn, distilled water, P+) read?
**A.** R

**Q.** What about the resistance ([5]; 0.2 ml inoculum, contact time 10 mn, distilled water, P-) of the same compound?
**A.** R

**Q.** And the resistance ([5]; 0.2 ml inoculum, contact time 10 mn, hard water, P+)?
**A.** R

**Q.** And the resistance ([5]; 0.2 ml inoculum, contact time 10 mn, hard water, P-)?
**A.** R

**Q.** What about the resistance ([5]; 0.4 ml inoculum, contact time 20 mn, distilled water, P+) of the same compound?
**A.** R

**Q.** What about the resistance ([5]; 0.4 ml inoculum, contact time 20 mn, distilled water, P-) of the same compound?
**A.** R

**Q.** What about the resistance ([5]; 0.4 ml inoculum, contact time 20 mn, hard water, P+) of the same compound?
**A.** R

**Q.** What about the resistance ([5]; 0.4 ml inoculum, contact time 20 mn, hard water, P-) of the same compound?
**A.** R

**Q.** What about the resistance ([5]; 0.6 ml inoculum, contact time 30 mn, distilled water, P+) of the same compound?
**A.** R

**Q.** What about the resistance ([5]; 0.6 ml inoculum, contact time 30 mn, distilled water, P-) of the same compound?
**A.** R

**Q.** What about the resistance ([5]; 0.6 ml inoculum, contact time 30 mn, hard water, P+) of the same compound?
**A.** R

**Q.** What about the resistance ([5]; 0.6 ml inoculum, contact time 30 mn, hard water, P-) of the same compound?
**A.** R

**Q.** Which MIC ([1]; alone) does the source give for `[Cl-].[Li+]` [lithium chloride] here?
**A.** 20 ppm

**Q.** And the “MIC, equivalent in %” value ([1]; alone)?
**A.** 0.002%

**Q.** For `CC1(C)S[C@@H]2[C@H](NC(=O)[C@H](C(=O)O)c3ccsc3)C(=O)N2[C@H]1C(=O)O` [ticarcillin], which “number of strains resistant, of 958 strains tested” value [4] is on record?
**A.** 235

**Q.** What about the MIC ([4]; alone, strain lic R βLac^+ OXA) of the same compound?
**A.** 512 mg/L

**Q.** And the MIC ([4]; alone, strain lic R βLac^+ PSE)?
**A.** 4100 mg/L

**Q.** What about the MIC ([4]; alone, strain lic R βLac^+ TEM) of the same compound?
**A.** 1020 mg/L

**Q.** And the MIC [4, 6]?
**A.** 256 mg/L

**Q.** And the MIC [4, 7]?
**A.** 32 mg/L

**Q.** And the MIC [4, 8]?
**A.** 512 mg/L
